For one molecule, IC50 results are on record in BindingDB's records for PubMed 30125723 (n/a, 2018).

Each structure is given as a SMILES string.

In this test the target is alpha-glucosidase (Saccharomyces cerevisiae). Nature of the test: Inhibition of Saccharomyces cerevisiae alpha-glucosidase activity using pNPG as substrate.

Usually IC50 stands for the point on the concentration scale where inhibition reaches its midpoint. A low value points to inhibition by little substance. `O=C(CO)CCC(=O)c1nc(C(=O)O)cc2c1[nH]c1ccccc12`: the IC50 is 0.063 µM.
